In PMC5705272 (Neurobiology of aging, 2017) one finds IC50 data, which are given here for one compound.

This assay addresses T1, PKC-λ/ι (PKC-ι) (Homo sapiens, UniProt P41743).
T1 sequence (P41743 2-596): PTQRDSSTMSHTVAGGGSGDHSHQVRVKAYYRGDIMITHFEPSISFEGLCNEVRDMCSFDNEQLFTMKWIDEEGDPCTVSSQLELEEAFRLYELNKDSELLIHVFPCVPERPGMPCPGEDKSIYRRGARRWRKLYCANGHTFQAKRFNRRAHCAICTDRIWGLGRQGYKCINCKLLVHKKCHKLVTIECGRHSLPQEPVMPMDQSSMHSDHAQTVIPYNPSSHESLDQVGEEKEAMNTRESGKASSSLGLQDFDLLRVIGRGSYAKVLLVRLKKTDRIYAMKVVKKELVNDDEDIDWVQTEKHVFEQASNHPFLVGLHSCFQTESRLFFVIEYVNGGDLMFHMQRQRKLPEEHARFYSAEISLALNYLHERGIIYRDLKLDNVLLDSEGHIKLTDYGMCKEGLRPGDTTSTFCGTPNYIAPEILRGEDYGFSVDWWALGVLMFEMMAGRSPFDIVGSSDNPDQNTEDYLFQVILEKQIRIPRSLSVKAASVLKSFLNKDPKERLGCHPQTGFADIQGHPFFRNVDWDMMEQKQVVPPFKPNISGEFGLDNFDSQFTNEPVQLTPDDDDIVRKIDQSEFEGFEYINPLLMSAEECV
It is filed as cell-based.

A word on the IC50: it is the concentration that inhibits the measured activity by half. Low values mean greater potency, high ones weaker potency.

In turn, `NC(=O)c1ncn([C@@H]2C[C@H](COP(=O)(O)O)[C@@H](O)[C@H]2O)c1N` [ICAPP, 1H-imidazole-4-carboxamide,5-amino]-[2,3-dihydroxy-4-[(phosphono-oxy)methyl]cyclopentane-[1R-(1a,2b,3b,4a)]] showed a half-inhibitory concentration (IC50) of 1 to 10 nM.
